Measurements reported in paper PMC11544891, “Uncovering the Potential Somatic Angiotensin-Converting Enzyme (sACE) Inhibitory Capacity of Peptides from Acheta domesticus: Insights from In Vitro Gastrointestinal Digestion” (Foods, 2024).
Values joined by “and” are separate entries in the source; they are usually repeats but may differ in a detail not shown here. Identical values can stand only once. Like-named read-outs stand apart in the source and are kept apart here. Residues, ends and D or L forms follow the SMILES beside them. No end group written: not given here.

How the values were obtained:
[1] = molecular target: T1, somatic angiotensin-converting enzyme (sACE) (Oryctolagus cuniculus, UniProt P12822); assay: sACE-inhibition fluorimetric assay (o-Abz-Gly-p-Phe(NO2)-Pro-OH substrate); assay type: biochemical, rabbit; conditions: synthetic peptides; mean ± SD, n = 3; read-out: ACE-Inhibitory Capacity Expressed as IC50 (converted)
T1 construct: the ACE working solution was prepared according to Murray et al. [28] using rabbit lung; from tissue; host or cells: rabbit lung
T1 sequence (P12822 34-1310): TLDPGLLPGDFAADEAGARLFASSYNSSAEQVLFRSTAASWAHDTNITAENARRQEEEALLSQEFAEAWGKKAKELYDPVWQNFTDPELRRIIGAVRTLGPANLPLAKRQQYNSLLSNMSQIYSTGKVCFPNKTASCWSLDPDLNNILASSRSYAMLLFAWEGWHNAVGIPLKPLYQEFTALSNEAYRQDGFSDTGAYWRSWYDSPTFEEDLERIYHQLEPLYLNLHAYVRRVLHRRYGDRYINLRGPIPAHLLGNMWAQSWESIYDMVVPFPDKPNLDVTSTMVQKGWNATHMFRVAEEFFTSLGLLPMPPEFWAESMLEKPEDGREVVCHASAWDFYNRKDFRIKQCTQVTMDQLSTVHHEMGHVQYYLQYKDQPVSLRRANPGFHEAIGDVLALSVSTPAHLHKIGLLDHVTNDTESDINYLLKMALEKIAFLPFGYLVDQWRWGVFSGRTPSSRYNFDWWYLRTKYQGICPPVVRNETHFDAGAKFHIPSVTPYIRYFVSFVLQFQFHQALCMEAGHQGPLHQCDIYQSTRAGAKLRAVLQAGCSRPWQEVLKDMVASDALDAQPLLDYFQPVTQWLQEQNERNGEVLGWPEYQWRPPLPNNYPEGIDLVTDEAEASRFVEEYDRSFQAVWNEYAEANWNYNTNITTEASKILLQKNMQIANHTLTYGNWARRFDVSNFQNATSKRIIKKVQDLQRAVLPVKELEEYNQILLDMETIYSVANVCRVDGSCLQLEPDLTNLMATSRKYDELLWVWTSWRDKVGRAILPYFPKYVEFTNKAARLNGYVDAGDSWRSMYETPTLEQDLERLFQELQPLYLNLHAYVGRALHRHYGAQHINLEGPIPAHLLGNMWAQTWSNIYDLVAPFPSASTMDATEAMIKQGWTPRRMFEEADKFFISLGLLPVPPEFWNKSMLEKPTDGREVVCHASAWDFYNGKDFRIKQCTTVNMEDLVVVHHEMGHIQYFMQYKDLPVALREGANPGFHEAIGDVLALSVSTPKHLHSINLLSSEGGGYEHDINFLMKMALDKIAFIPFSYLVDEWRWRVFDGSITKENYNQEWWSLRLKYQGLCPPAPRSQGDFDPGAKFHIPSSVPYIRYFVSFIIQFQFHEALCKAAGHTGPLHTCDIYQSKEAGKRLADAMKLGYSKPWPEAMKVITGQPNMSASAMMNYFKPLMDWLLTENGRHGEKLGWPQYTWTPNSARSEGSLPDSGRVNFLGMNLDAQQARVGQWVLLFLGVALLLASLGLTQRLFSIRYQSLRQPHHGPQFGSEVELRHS
Protocol: The sACE-inhibitory capacity was determined using a fluorimetric assay, as reported by Tavares et al., with some modifications. Briefly, the ACE working solution was prepared according to Murray et al. using rabbit lung posteriorly diluted in 0.15 M Tris-base buffer (pH 8.3) with 0.1 mM ZnCl2. A total of 40 µL of the working solution was added to each 96-well microplate well (Porvair, Norfolk, UK), then adjusted to 80 µL by adding distilled water to the blank (B), control (C), or samples (S). The enzyme reaction was started by adding 160 µL of 0.45 mM o-Abz-Gly-p-Phe(NO2)-Pro-OH dissolved in 0.15 M Tris-base buffer (pH 8.3) containing 1.125 M NaCl, and the mixture was incubated at 37 °C for 30 min. The fluorescence generated was measured using a multiscan microplate fluorimeter (FLUOstar optima, BMG Labtech, Ortenberg, Germany) with excitation and emission wavelengths of 350 and 420 nm, respectively. Data were processed with the software FLUOstar control (version 1.32 R2, BMG Labtech, Ortenberg, Germany). The assay was performed in triplicate, and the resulting data were subjected to a nonlinear fit using GraphPad Prism 5 to determine the IC50 (half maximal inhibitory concentration) values. The resulting data (n = 3) were expressed as the mean ± SD (standard deviation).

[2] = test system: sACE; conditions: cited from earlier work
[3] = test system: spontaneously hypertensive rats (SHR); conditions: cited from earlier work; for anti-hypertensive activity in SHR: Table S2, ref [19] of supplement
[4] = test system: thoracic aortic rings; parameters: method as in earlier work; conditions: Table S2; ref [19] of supplement; cited from earlier work
[5] = Table S2, peptides from in vitro digestion (pepsin, pancreatin) of edible insects, ref [14] of supplement
[6] = Table S2, ref [17] of supplement, read-out: In Vitro (IC50)
[7] = Table S2, T. molitor larvae, ref [21] of supplement, read-out: In Vitro (IC50)
[8] = peptides found in fermented milks, read-out: IC50 values for sACE
[9] = Table S2, ref [3] of supplement, read-out: In Vitro (IC50)

For `CC(C)[C@H](NC(=O)[C@@H](N)CC(=O)O)C(=O)N[C@@H](Cc1c[nH]c2ccccc12)C(=O)O` [DVW] (H-Asp-Val-Trp-OH), the IC50 [1] was 195 µM and 196 µM.

For `CC[C@H](C)[C@H](NC(=O)[C@@H](N)CCC(N)=O)C(=O)N[C@H](C(=O)N[C@@H](Cc1c[nH]c2ccccc12)C(=O)O)C(C)C` [QIVW] (H-QIVW-OH), the IC50 [1] was 140 µM.

For “AAAPVAVAK [literature peptide from Tenebrio molitor larvae digestion]”, the IC50 [2] is given as 8.31 µg/mL.

In the case of “AGDDAPR [literature peptide from Tenebrio molitor protein concentrate digestion]”, the IC50 [2] is listed as 8.34 µg/mL.

For “AIGVGAIER [literature peptide from Schistocerca gregaria digestion]”, the “In Vitro (IC50)” value [2, 5] is listed as 14.43 ± 0.02 µg/mL.

In the case of APPPKK, the “In Vitro (IC50)” value ([2]; Table S2, ref [9] of supplement) is listed as 47 µg/mL.

For ASL, the IC50 ([2]; Table S2, ref [5] of supplement, read-out: In Vitro (IC50)) is given as 102 µM.

In the case of “AVFPSIVGR [literature peptide from Apis mellifera pupae hydrolysate]”, the IC50 ([2]; read-out: IC50) is given as 6.64 µM.

AVQPCF [AVQPCF] gave an IC50 [1] of 3.69 µM.

For Ala-Val-Phe [AVF], the IC50 ([2]; Table S2, ref [18] of supplement, read-out: In Vitro (IC50)) is listed as 2120 µM, the IC50 ([2]; Table S2, synthesized peptides, ref [19] of supplement, read-out: In Vitro (IC50)) is listed as 1370 to 1430 µM and the “anti-hypertensive activity in SHR” value [3] is listed as “anti-hypertensive activity”. The “inhibitory activity in thoracic aortic rings from male Wistar rats” value [4] was “no inhibitory activity”.

With CAIAW [CAIAW] the IC50 [1] was 6.56 µM and 6.55 µM.

In the case of “FDPFPK (LCFDPFPK) [literature peptide from Schistocerca gregaria digestion]”, the “In Vitro (IC50)” value [2, 5] is given as 79.25 ± 0.04 µg/mL.

In the case of FFGT, the IC50 [2, 6] is listed as 19.4 ± 1.7 µM.

For GAMVVH, the IC50 ([2]; Table S2, ref [7] of supplement, read-out: In Vitro (IC50)) is listed as 19.4 ± 0.21 µM.

In the case of “GKDAVIV [literature peptide from Schistocerca gregaria digestion]”, the “In Vitro (IC50)” value [2, 5] is given as 12.82 ± 0.02 µg/mL.

In the case of GNPWM, the IC50 ([2]; Table S2, ref [10] of supplement, read-out: In Vitro (IC50)) is given as 21.7 µM.

For HILG, the IC50 [2, 7] is given as 2820 µM.

In the case of “IIAPPER [literature peptide from Gryllodes sigillatu digestion]”, the IC50 [2] is listed as 6.93 µg/mL.

With IIIGW [IIIGW] the IC50 [1] was 54.6 µM and 54.5 µM.

In the case of IPP, the IC50 [2, 8] is listed as 5 µM.

For KHV, the IC50 ([2]; Table S2, ref [8] of supplement, read-out: In Vitro (IC50)) is given as 12.8 µM.

In the case of “KVEGDLK [literature peptide from Gryllodes sigillatu digestion]”, the IC50 [2] is given as 3.67 µg/mL.

For “LAPSTIK [literature peptide from Gryllodes sigillatu digestion]”, the “In Vitro (IC50)” value [2, 5] is given as 11.14 ± 0.08 µg/mL.

For LLKPY, the IC50 ([2]; Table S2, ref [2] of supplement, read-out: In Vitro (IC50)) is given as 54.9 µM.

In the case of LSRVP, the IC50 [2, 6] is listed as 52.7 ± 4.04 µM.

In the case of NIKY, the IC50 [2, 7] is listed as 52.2 µM.

For “NYVADGLG [literature peptide from Tenebrio molitor larvae digestion]”, the “In Vitro (IC50)” value [2, 5] is listed as 12.09 ± 0.08 µg/mL.

For “PGKVHIT [literature peptide from Apis mellifera pupae hydrolysate]”, the IC50 [2, 9] is given as 224 µM.

For PIVCF [PIVCF], the IC50 [1] was 4.64 µM and 4.63 µM.

For “PPVLVFV [literature peptide from Apis mellifera pupae hydrolysate]”, the IC50 [2, 9] is given as 47.8 µM.

For QGLGY, the IC50 [2, 7] is given as 264 µM.

In the case of RYL, the IC50 ([2]; peptide from Bombyx mori hydrolysates, read-out: IC50) is given as 3.31 µM.

For “VAPEEHPV [literature peptide from Gryllodes sigillatu digestion]”, the “In Vitro (IC50)” value [2, 5] is listed as 18.85 ± 0.05 µg/mL.

For VPP, the IC50 [2, 8] is listed as 9 µM.

In the case of Val-Phe [VF], the IC50 ([2]; Table S2, […], ref [19] of supplement, read-out: In Vitro (IC50)) is listed as 120 to 144 µM, the “anti-hypertensive activity in SHR” value [3] is listed as “anti-hypertensive activity” and the “in vivo antihypertensive capacity” value [3] is listed as “demonstrated in vivo antihypertensive capacity”. For the same molecule, the “inhibitory activity in thoracic aortic rings from male Wistar rats” value [4] was “inhibitory activity”.

In the case of YAN, the “In Vitro (IC50)” value ([2]; Table S2, T. molitor larva flour, alcalase, ref [20] of supplement) is listed as 17 µg/mL and the IC50 [2, 7] is listed as 172 µM.

In the case of “YDDGSYKPH [literature peptide from Tenebrio molitor larvae digestion]”, the IC50 [2] is given as 5.81 µg/mL.

For “YETGNGIK [literature peptide from Schistocerca gregaria digestion]”, the IC50 [2] is given as 3.25 µg/mL.
